Laboratory results taken from EP4273147A1, “SUBSTITUTED SPIROLACTAMS, SALTS THEREOF AND THEIR USE AS HERBICIDALLY ACTIVE SUBSTANCES” (Bayer Aktiengesellschaft, priority 2022, dated 2023).

Experiments:
POAAN [1] = test: Herbicidal post-emergence action (Table B7); assay type: in vivo, Poa annua
How it was run: (§1)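 Greenhouse post-emergence screen on potted weeds in sandy loam, treatment at one-leaf stage, visual % control scored ~3 weeks later against untreated plants.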

SETVI [2] = test: Herbicidal pre-emergence action (Table A5); assay type: in vivo, Setaria viridis; settings: visual grading after ca. 3 weeks
How it was run: (§2)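 Weed seeds are sown into sandy loam in pots and covered with soil, with two species per pot, one monocot and one dicot.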

POAAN [3] = test: Herbicidal pre-emergence action (Table A7); assay type: in vivo, Poa annua; settings: visual grading after ca. 3 weeks
How it was run: as §2

VERPE [4] = test: Herbicidal post-emergence action (Table B10); assay type: in vivo, Veronica persica
Procedure: (§3) Seeds of mono- and dicotyledonous weed plants were placed in plastic pots in sandy loam soil (doubly sown with in each case one species of mono- or dicotyledonous weed plants per pot), covered with soil and cultivated in a greenhouse under controlled growth conditions. 2 to 3 weeks after sowing, the test plants were treated at the one-leaf stage. […] After the test plants had been kept in the greenhouse under optimum growth conditions for about 3 weeks, the activity of the preparations was rated visually in comparison to untreated controls. For example, 100% activity = the plants have died, 0% activity = like control plants.

SETVI [5] = test: Herbicidal post-emergence action (Table B8); assay type: in vivo, Setaria viridis; settings: application rate 1280 g/ha
Procedure: as §3

ECHCG [6] = test: Herbicidal pre-emergence action (Table A2); assay type: in vivo, Echinochloa crus-galli; settings: visual grading after ca. 3 weeks
How it was run: as §2

ECHCG [7] = test: Herbicidal post-emergence action (Table B3); assay type: in vivo, Echinochloa crus-galli; settings: rated visually after about 3 weeks
How it was run: as §1

LOLRI [8] = test: Herbicidal pre-emergence action (Table A3); assay type: in vivo, Lolium rigidum; settings: visual grading after ca. 3 weeks
How it was run: as §2

ALOMY [9] = test: Herbicidal pre-emergence action (Table A9); assay type: in vivo, Alopecurus myosuroides; settings: visual grading after ca. 3 weeks
From the text: (§4) Seeds of mono- and dicotyledonous weed plants were sown in plastic pots (double sowings with one species of mono- and one species of dicotyledonous weed plants per pot), in sandy loam, and covered with soil.

MATIN [10] = test: Herbicidal pre-emergence action (Table A4); assay type: in vivo, Matricaria inodora; settings: application rate 1280 g/ha; visual grading after ca. 3 weeks
How it was run: as §2

AMARE [11] = test: Herbicidal post-emergence action (Table B11); assay type: in vivo, Amaranthus retroflexus
Procedure: as §3

VERPE [12] = test: Herbicidal pre-emergence action (Table A11); assay type: in vivo, Veronica persica; settings: application rate 1280 g/ha; visual grading after ca. 3 weeks
From the text: as §4

STEME = test: Herbicidal pre-emergence action (Table A6); assay type: in vivo, Stellaria media; settings: visual grading after ca. 3 weeks
How it was run: as §2

KCHSC = test: Herbicidal pre-emergence action (Table A10); assay type: in vivo, Kochia scoparia; settings: application rate 1280 g/ha; visual grading after ca. 3 weeks
How it was run: as §2

ABUTH [13] = test: Herbicidal pre-emergence action (Table A1); assay type: in vivo, Abutilon theophrasti; settings: application rate 1280 g/ha; visual grading after ca. 3 weeks vs untreated controls (100% = plants have died off, 0% = as control plants)
From the text: as §4

AMARE [14] = test: Herbicidal pre-emergence action (Table A8); assay type: in vivo, Amaranthus retroflexus; settings: visual grading after ca. 3 weeks vs untreated controls (100% = plants have died off, 0% = as control plants)
From the text: as §4

DIGSA = test: Herbicidal pre-emergence action (Table A12); assay type: in vivo, Digitaria sanguinalis; settings: visual grading after ca. 3 weeks
How it was run: as §2

ZEAMX [15] = test: Post-emergence effects on crop plants (Table F1); assay type: in vivo, Zea mays; settings: application rate 80 g/ha, crop plant ZEAMX
From the text: (§5) 2 to 3 weeks after sowing, the test plants were sprayed in the single-leaf stage.

BRSNW [16] = test: Pre-emergence effects on crop plants (Table D5); assay type: in vivo, Brassica napus; settings: crop plant; application rate 320 g/ha; visual grading after ca. 3 weeks
TRZAS = test: Post-emergence effects on crop plants (Table F2); assay type: in vivo, Triticum aestivum; settings: application rate 320 g/ha, crop plant TRZAS
From the text: as §5

ZEAMX [17] = test: Pre-emergence effects on crop plants (Table D1); assay type: in vivo, Zea mays; settings: crop plant; application rate 80 g/ha; visual grading after ca. 3 weeks
LOLRI [18] = test: Herbicidal pre-emergence action, section C (Table C7); assay type: in vivo, Lolium rigidum; settings: application rate 320 g/ha; visual grading after ca. 3 weeks
ORYZA [19] = test: Pre-emergence effects on crop plants (Table D3); settings: crop plant; application rate 80 g/ha; visual grading after ca. 3 weeks
ALOMY [20] = test: Herbicidal pre-emergence action, section C (Table C2); assay type: in vivo, Alopecurus myosuroides; settings: application rate 320 g/ha; visual grading after ca. 3 weeks
ORYZA [21] = test: Post-emergence effects on crop plants (Table F3); assay type: in vivo, Oryza sativa; settings: application rate 320 g/ha, crop plant ORYZA
From the text: as §5

ECHCG [22] = test: Herbicidal pre-emergence action, section C (Table C6); assay type: in vivo, Echinochloa crus-galli; settings: application rate 80 g/ha; visual grading after ca. 3 weeks
SETVI [23] = test: Herbicidal pre-emergence action, section C (Table C10); assay type: in vivo, Setaria viridis; settings: application rate 320 g/ha; visual grading after ca. 3 weeks
From the text: Seeds of mono- and dicotyledonous weed plants and crop plants were sown, in plastic or organic planting pots, in sandy loam and covered with soil. The compounds according to the invention, formulated in the form of wettable powders (WP) or as emulsifiable concentrates (EC), were applied to the surface of the covering soil as aqueous suspension or emulsion, with the addition of 0.5% of an additive, at an application rate of 600 1 of water/ha (converted). Following treatment, the pots were placed in a greenhouse and kept under optimum growth conditions for the test plants.

ECHCG [24] = test: Herbicidal post-emergence action, section E (Table E5); assay type: in vivo, Echinochloa crus-galli; settings: application rate 320 g/ha; assessed visually after ca. 3 weeks
From the text: as §5

VIOTR = test: Herbicidal pre-emergence action, section C (Table C12); assay type: in vivo, Viola tricolor; settings: application rate 320 g/ha; visual grading after ca. 3 weeks
BRSNW [25] = test: Post-emergence effects on crop plants (Table F5); assay type: in vivo, Brassica napus; settings: application rate 320 g/ha, crop plant BRSNW
From the text: as §5

GLXMA = test: Pre-emergence effects on crop plants (Table D4); assay type: in vivo, Glycine max; settings: crop plant; application rate 80 g/ha; visual grading after ca. 3 weeks
ABUTH [26] = test: Herbicidal post-emergence action (Table B1); assay type: in vivo, Abutilon theophrasti; settings: application rate 320 g/ha; treated at one-leaf stage; rated visually after about 3 weeks vs untreated controls (100% = plants have died, 0% = like control plants)
Procedure: as §3

MATIN [27] = test: Herbicidal post-emergence action (Table B6); assay type: in vivo, Matricaria inodora; settings: application rate 1280 g/ha; rated visually after about 3 weeks
Procedure: as §3

Structure (SMILES)	post-emergence activity against POAAN (POAAN [1]; application rate 1280 g/ha)	pre-emergence activity against SETVI (SETVI [2]; application rate 320 g/ha)	pre-emergence activity against POAAN (POAAN [3]; application rate 320 g/ha)	pre-emergence activity against ECHCG (ECHCG [6]; application rate 320 g/ha)	pre-emergence activity against LOLRI (LOLRI [8]; application rate 1280 g/ha)	pre-emergence activity against MATIN (MATIN [10])	post-emergence activity against AMARE (AMARE [11]; application rate 1280 g/ha)	pre-emergence activity against SETVI (SETVI [2]; application rate 1280 g/ha)	pre-emergence activity against ECHCG (ECHCG [6]; application rate 1280 g/ha)	pre-emergence activity against KCHSC (KCHSC)	post-emergence activity against ECHCG (ECHCG [7]; application rate 1280 g/ha)	further results
O=C1N(Cc2cccc(Cl)c2F)CCCC12CCCN(Cc1cccc(Cl)c1F)C2=O (racemic) [I-007]	90%	100%	100%	100%	100%	90%	90%	–	–	–	–	post-emergence activity against VERPE (VERPE [4]; application rate 320 g/ha): 90%; post-emergence activity against SETVI (SETVI [5]): 90%; post-emergence activity against ECHCG (ECHCG [7]; application rate 320 g/ha): 100%; pre-emergence activity against ALOMY (ALOMY [9]; application rate 1280 g/ha): 90%; pre-emergence activity against VERPE (VERPE [12]): 90%; pre-emergence activity against STEME (STEME; application rate 1280 g/ha): 90%
O=C1N(Cc2cccs2)CCCC12CCCN(Cc1cccc(F)c1F)C2=O (racemic) [I-040]	–	–	100%	–	–	90%	100%	100%	100%	90%	90%	post-emergence activity against POAAN (POAAN [1]; application rate 320 g/ha): 100%; post-emergence activity against VERPE (VERPE [4]; application rate 1280 g/ha): 90%; pre-emergence activity against LOLRI (LOLRI [8]; application rate 320 g/ha): 100%; pre-emergence activity against STEME (STEME; application rate 320 g/ha): 90%; pre-emergence activity against ABUTH (ABUTH [13]): 90%
O=C1N(Cc2ccsc2)CCCC12CCCN(Cc1ccsc1)C2=O (racemic) [I-046]	–	–	–	–	90%	–	–	90%	100%	–	–	pre-emergence activity against POAAN (POAAN [3]; application rate 1280 g/ha): 100%; pre-emergence activity against AMARE (AMARE [14]; application rate 1280 g/ha): 90%; pre-emergence activity against DIGSA (DIGSA; application rate 1280 g/ha): 90%; pre-emergence activity against STEME (STEME; application rate 320 g/ha): 100%
COc1ccccc1CN1CCCC2(CCCN(Cc3cccc(F)c3F)C2=O)C1=O (racemic) [I-052]	–	100%	–	100%	–	–	–	–	–	–	90%	post-emergence activity against ZEAMX (ZEAMX [15]): 0%; pre-emergence activity against BRSNW (BRSNW [16]): 0%; post-emergence activity against TRZAS (TRZAS): 0%; pre-emergence activity against ZEAMX (ZEAMX [17]): 0%; pre-emergence activity against LOLRI (LOLRI [18]): 90%; pre-emergence activity against ORYZA (ORYZA [19]): 20%; pre-emergence activity against LOLRI (LOLRI [8]; application rate 320 g/ha): 100%; pre-emergence activity against ALOMY (ALOMY [20]): 90%; post-emergence activity against ORYZA (ORYZA [21]): 20%; post-emergence activity against AMARE (AMARE [11]; application rate 320 g/ha): 90%; pre-emergence activity against ECHCG (ECHCG [22]): 100%; pre-emergence activity against SETVI (SETVI [23]): 100%; post-emergence activity against ECHCG (ECHCG [24]): 80%; pre-emergence activity against VIOTR (VIOTR): 80%; post-emergence activity against BRSNW (BRSNW [25]): 0%; pre-emergence activity against GLXMA (GLXMA): 20%
O=C1N(Cc2cccs2)CCCC12CCCN(Cc1ccccc1F)C2=O (racemic) [I-065]	90%	90%	–	90%	–	–	90%	–	–	90%	–	pre-emergence activity against LOLRI (LOLRI [8]; application rate 320 g/ha): 100%; pre-emergence activity against ALOMY (ALOMY [9]; application rate 1280 g/ha): 90%
O=C1N(Cc2ccccc2)CCCC12CCCN(Cc1c(F)cccc1F)C2=O (racemic) [I-068]	–	100%	100%	100%	90%	–	100%	–	–	–	90%	post-emergence activity against VERPE (VERPE [4]; application rate 1280 g/ha): 90%; pre-emergence activity against STEME (STEME; application rate 1280 g/ha): 90%
COc1ccccc1CN1CCCC2(CCCN(Cc3ccccc3OC)C2=O)C1=O (racemic) [I-071]	–	–	100%	–	–	–	–	–	100%	–	–	post-emergence activity against ABUTH (ABUTH [26]): 90%
O=C1N(Cc2ccccc2)CCC12CCCN(Cc1cccc(F)c1F)C2=O (racemic) [I-084]	–	–	100%	–	100%	90%	–	100%	100%	90%	–	pre-emergence activity against AMARE (AMARE [14]; application rate 1280 g/ha): 90%; pre-emergence activity against DIGSA (DIGSA; application rate 1280 g/ha): 100%; pre-emergence activity against STEME (STEME; application rate 1280 g/ha): 90%
COc1ccccc1CN1CCCC2(CCCN(Cc3ccccc3Cl)C2=O)C1=O (racemic) [I-095]	–	–	–	100%	–	–	90%	90%	–	–	90%	post-emergence activity against VERPE (VERPE [4]; application rate 1280 g/ha): 90%
O=C1N(Cc2ccccc2F)CCC12CCN(Cc1ccccc1F)C2=O (racemic) [I-097]	–	–	–	–	90%	90%	90%	100%	90%	90%	–	–
O=C1N(Cc2c(F)cccc2F)CCC12CCN(Cc1c(F)cccc1F)C2=O (racemic) [I-101]	90%	–	–	–	90%	90%	90%	90%	90%	90%	90%	pre-emergence activity against POAAN (POAAN [3]; application rate 1280 g/ha): 100%; post-emergence activity against MATIN (MATIN [27]): 90%
O=C1N(Cc2ccccn2)CCCC12CCCN(Cc1cccc(F)c1F)C2=O (racemic) [I-108]	–	–	–	90%	–	90%	90%	90%	–	–	–	pre-emergence activity against POAAN (POAAN [3]; application rate 1280 g/ha): 90%; pre-emergence activity against ALOMY (ALOMY [9]; application rate 1280 g/ha): 90%
O=C1N(Cc2c(F)cc(F)cc2F)CCCC12CCCN(Cc1c(F)cc(F)cc1F)C2=O (racemic) [I-198, 2,8-bis[(2,4,6-trifluorophenyl)methyl]-2,8-diazaspiro[5.5]undecane-1,7-dione]	90%	100%	–	100%	–	90%	90%	–	–	90%	–	pest or weed control at 320 g/ha (POAAN [3]; Poa annua, pre-emergence, 504 h, application rate 320 g/ha, read-out: pre-emergence activity against POAAN): 100%; post-emergence activity against SETVI (SETVI [5]): 90%; pre-emergence activity against AMARE (AMARE [14]; application rate 320 g/ha): 90%; pest or weed control at 1280 g/ha (ECHCG [7]; Echinochloa crus-galli, post-emergence, 504 h, application rate 1280 g/ha, read-out: post-emergence activity against ECHCG): 90%; pest or weed control at 320 g/ha (LOLRI [8]; Lolium rigidum, pre-emergence, 504 h, application rate 320 g/ha, read-out: pre-emergence activity against LOLRI): 100%; pre-emergence activity against ALOMY (ALOMY [9]; application rate 320 g/ha): 90%; pre-emergence activity against VERPE (VERPE [12]): 90%; pre-emergence activity against DIGSA (DIGSA; application rate 320 g/ha): 100%; pre-emergence activity against STEME (STEME; application rate 320 g/ha): 90%
